From patent publication US12077503B2, “Substituted cyclic amides and their use as herbicides” (FMC CORPORATION, priority 2015, dated 2024)

Experiments:
Assay type in all cases: in vivo
[1] = system: barnyardgrass (Echinochloa crus-galli); assay: Test G Post-Emergence Protocol; conditions: Echinochloa crus-galli, post-emergence, 312 h, read-out: Barnyardgrass damage rating; for pest or weed control at 15.625 g/ha: 15.625 g ai/ha, evaluated after 13 days (100=total damage to plant; 0=no damage to plant); for pest or weed control at 62.5 g/ha: 62.5 g ai/ha; for pest or weed control at 62.5 g/ha / pest or weed control at 250 g/ha: evaluated after 13 days, 100=total damage to plant, 0=no damage to plant; for pest or weed control at 250 g/ha: 250 g ai/ha
In short: (§1)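 Seedlings grown 8 days in soil in a glasshouse (24/16 °C day/night, 14 h light, 65% humidity) were sprayed post-emergence with compound in acetone/water 50:50 plus 0.5% Tween 20 at 15.625, 62.5 or 250 g/ha. Damage was scored after 13 days on a 0–100 scale (100 = total damage).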

[2] = system: redroot pigweed (Amaranthus retroflexus); assay: Test G Post-Emergence Protocol; conditions: Amaranthus retroflexus, post-emergence, 312 h, read-out: Pigweed, Redroot damage rating; for pest or weed control at 15.625 g/ha: 15.625 g ai/ha, evaluated after 13 days (100=total damage to plant; 0=no damage to plant); for pest or weed control at 62.5 g/ha: 62.5 g ai/ha; for pest or weed control at 62.5 g/ha / pest or weed control at 250 g/ha: evaluated after 13 days, 100=total damage to plant, 0=no damage to plant; for pest or weed control at 250 g/ha: 250 g ai/ha
In short: as §1

[3] = system: giant foxtail (Setaria faberi); assay: Test G Post-Emergence Protocol; conditions: Setaria faberi, post-emergence, 312 h, read-out: Foxtail, Giant damage rating; for pest or weed control at 15.625 g/ha: 15.625 g ai/ha, evaluated after 13 days (100=total damage to plant; 0=no damage to plant); for pest or weed control at 62.5 g/ha: 62.5 g ai/ha; for pest or weed control at 62.5 g/ha / pest or weed control at 250 g/ha: evaluated after 13 days, 100=total damage to plant, 0=no damage to plant; for pest or weed control at 250 g/ha: 250 g ai/ha
In short: as §1

[4] = system: velvetleaf (Abutilon theophrasti); assay: Test G Post-Emergence Protocol; conditions: Abutilon theophrasti, post-emergence, 312 h, read-out: Velvetleaf damage rating; for pest or weed control at 15.625 g/ha: 15.625 g ai/ha, evaluated after 13 days (100=total damage to plant; 0=no damage to plant); for pest or weed control at 62.5 g/ha: 62.5 g ai/ha; for pest or weed control at 62.5 g/ha / pest or weed control at 250 g/ha: evaluated after 13 days, 100=total damage to plant, 0=no damage to plant; for pest or weed control at 250 g/ha: 250 g ai/ha
In short: as §1

[5] = system: corn (Zea mays); assay: Test G Post-Emergence Protocol; conditions: Zea mays, post-emergence, 312 h, read-out: Corn damage rating; for plant injury at 15.625 g/ha: 15.625 g ai/ha, evaluated after 13 days (100=total damage to plant; 0=no damage to plant); for plant injury at 62.5 g/ha: 62.5 g ai/ha; for plant injury at 62.5 g/ha / plant injury at 250 g/ha: evaluated after 13 days, 100=total damage to plant, 0=no damage to plant; for plant injury at 250 g/ha: 250 g ai/ha
In short: as §1

[6] = system: ivy-leaved morning glory (Ipomoea hederacea); assay: Test G Post-Emergence Protocol; conditions: Ipomoea, post-emergence, 312 h, read-out: Morningglory, Ivy-leaved damage rating; for pest or weed control at 15.625 g/ha: 15.625 g ai/ha, evaluated after 13 days (100=total damage to plant; 0=no damage to plant); for pest or weed control at 62.5 g/ha: 62.5 g ai/ha; for pest or weed control at 62.5 g/ha / pest or weed control at 250 g/ha: evaluated after 13 days, 100=total damage to plant, 0=no damage to plant; for pest or weed control at 250 g/ha: 250 g ai/ha
In short: as §1

[7] = system: barnyardgrass (Echinochloa crus-galli); assay: Test G Pre-Emergence Protocol; conditions: Echinochloa crus-galli, pre-emergence, 312 h, evaluated after 13 days; for pest or weed control at 15.625 g/ha: 15.625 g ai/ha; for pest or weed control at 15.625 g/ha / pest or weed control at 250 g/ha: read-out: Barnyardgrass damage rating (100=total damage to plant; 0=no damage to plant); for pest or weed control at 62.5 g/ha: 62.5 g ai/ha, 100=total damage to plant, 0=no damage to plant, read-out: Barnyardgrass damage rating; for pest or weed control at 250 g/ha: 250 g ai/ha
In short: (§2)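 One day after sowing, pots are treated with a spray of test compound formulated in acetone/water 50:50 plus 0.5% Tween 20, giving 15.625, 62.5 or 250 g/ha. Evaluation on a 0–100 damage scale follows 13 days of glasshouse growth.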

[8] = system: redroot pigweed (Amaranthus retroflexus); assay: Test G Pre-Emergence Protocol; conditions: Amaranthus retroflexus, pre-emergence, 312 h, evaluated after 13 days; for pest or weed control at 15.625 g/ha: 15.625 g ai/ha; for pest or weed control at 15.625 g/ha / pest or weed control at 250 g/ha: read-out: Pigweed, Redroot damage rating (100=total damage to plant; 0=no damage to plant); for pest or weed control at 62.5 g/ha: 62.5 g ai/ha, 100=total damage to plant, 0=no damage to plant, read-out: Pigweed, Redroot damage rating; for pest or weed control at 250 g/ha: 250 g ai/ha
In short: as §2

[9] = system: giant foxtail (Setaria faberi); assay: Test G Pre-Emergence Protocol; conditions: Setaria faberi, pre-emergence, 312 h, evaluated after 13 days; for pest or weed control at 15.625 g/ha: 15.625 g ai/ha; for pest or weed control at 15.625 g/ha / pest or weed control at 250 g/ha: read-out: Foxtail, Giant damage rating (100=total damage to plant; 0=no damage to plant); for pest or weed control at 62.5 g/ha: 62.5 g ai/ha, 100=total damage to plant, 0=no damage to plant, read-out: Foxtail, Giant damage rating; for pest or weed control at 250 g/ha: 250 g ai/ha
In short: as §2

[10] = system: velvetleaf (Abutilon theophrasti); assay: Test G Pre-Emergence Protocol; conditions: Abutilon theophrasti, pre-emergence, 312 h, evaluated after 13 days; for pest or weed control at 15.625 g/ha: 15.625 g ai/ha; for pest or weed control at 15.625 g/ha / pest or weed control at 250 g/ha: read-out: Velvetleaf damage rating (100=total damage to plant; 0=no damage to plant); for pest or weed control at 62.5 g/ha: 62.5 g ai/ha, 100=total damage to plant, 0=no damage to plant, read-out: Velvetleaf damage rating; for pest or weed control at 250 g/ha: 250 g ai/ha
In short: as §2

[11] = system: corn (Zea mays); assay: Test G Pre-Emergence Protocol; conditions: Zea mays, pre-emergence, 312 h, evaluated after 13 days; for plant injury at 15.625 g/ha: 15.625 g ai/ha; for plant injury at 15.625 g/ha / plant injury at 250 g/ha: read-out: Corn damage rating (100=total damage to plant; 0=no damage to plant); for plant injury at 62.5 g/ha: 62.5 g ai/ha, 100=total damage to plant, 0=no damage to plant, read-out: Corn damage rating; for plant injury at 250 g/ha: 250 g ai/ha
In short: as §2

[12] = system: ivy-leaved morning glory (Ipomoea hederacea); assay: Test G Pre-Emergence Protocol; conditions: Ipomoea, pre-emergence, 312 h, evaluated after 13 days; for pest or weed control at 15.625 g/ha: 15.625 g ai/ha; for pest or weed control at 15.625 g/ha / pest or weed control at 250 g/ha: read-out: Morningglory, Ivy-leaved damage rating (100=total damage to plant; 0=no damage to plant); for pest or weed control at 62.5 g/ha: 62.5 g ai/ha, 100=total damage to plant, 0=no damage to plant, read-out: Morningglory, Ivy-leaved damage rating; for pest or weed control at 250 g/ha: 250 g ai/ha
In short: as §2

SMILES	pest or weed control at 15.625 g/ha [1] [%]	pest or weed control at 62.5 g/ha [1] [%]	pest or weed control at 250 g/ha [1] [%]	pest or weed control at 15.625 g/ha [2] [%]	pest or weed control at 62.5 g/ha [2] [%]	pest or weed control at 250 g/ha [2] [%]	pest or weed control at 15.625 g/ha [3] [%]	pest or weed control at 62.5 g/ha [3] [%]	pest or weed control at 250 g/ha [3] [%]	pest or weed control at 15.625 g/ha [4] [%]	pest or weed control at 62.5 g/ha [4] [%]	pest or weed control at 250 g/ha [4] [%]	plant injury at 15.625 g/ha [5] [%]	plant injury at 62.5 g/ha [5] [%]	plant injury at 250 g/ha [5] [%]	pest or weed control at 15.625 g/ha [6] [%]	pest or weed control at 62.5 g/ha [6] [%]	pest or weed control at 250 g/ha [6] [%]	pest or weed control at 15.625 g/ha [7] [%]	pest or weed control at 62.5 g/ha [7] [%]	other results
CN1C[C@H](c2ccc(C(F)(F)F)cc2)[C@@H](C(=O)Nc2cccc(Cl)c2S(C)(=O)=O)C1=O (racemic) [Compound 1661]	0	20	10	0	20	40	0	60	60	0	0	10	0	0	0	0	0	0	0	0	pest or weed control at 250 g/ha [7]: 0%; pest or weed control at 15.625 g/ha [8]: 0%; pest or weed control at 62.5 g/ha [8]: 0%; pest or weed control at 250 g/ha [8]: 20%; pest or weed control at 15.625 g/ha [9]: 0%; pest or weed control at 62.5 g/ha [9]: 50%; pest or weed control at 250 g/ha [9]: 80%; pest or weed control at 15.625 g/ha [10]: 0%; pest or weed control at 62.5 g/ha [10]: 0%; pest or weed control at 250 g/ha [10]: 0%; plant injury at 15.625 g/ha [11]: 0%; plant injury at 62.5 g/ha [11]: 0%; plant injury at 250 g/ha [11]: 10%; pest or weed control at 15.625 g/ha [12]: 0%; pest or weed control at 62.5 g/ha [12]: 0%; pest or weed control at 250 g/ha [12]: 10%
COc1cc(C2CN(C)C(=O)C2C(=O)Nc2cccc(F)c2F)cc(F)c1F (stereo not drawn) [Compound 1706]	40	60	80	0	10	20	70	80	80	0	20	20	0	0	70	20	0	60	40	60	pest or weed control at 250 g/ha [7]: 80%; pest or weed control at 15.625 g/ha [8]: 0%; pest or weed control at 62.5 g/ha [8]: 0%; pest or weed control at 250 g/ha [8]: 20%; pest or weed control at 15.625 g/ha [9]: 50%; pest or weed control at 62.5 g/ha [9]: 70%; pest or weed control at 250 g/ha [9]: 90%; pest or weed control at 15.625 g/ha [10]: 0%; pest or weed control at 62.5 g/ha [10]: 0%; pest or weed control at 250 g/ha [10]: 10%; plant injury at 15.625 g/ha [11]: 0%; plant injury at 62.5 g/ha [11]: 10%; plant injury at 250 g/ha [11]: 40%; pest or weed control at 15.625 g/ha [12]: 0%; pest or weed control at 62.5 g/ha [12]: 0%; pest or weed control at 250 g/ha [12]: 0%
